Assay results: patent publication US9328138B2 (priority 2011, dated 2016)
pKi: −log10 of the molar value.

Legend:
[1] = target: T1, HCV genotype 1b (BK) NS3 modified enzyme with a R155K mutation (Hepatitis C virus genotype 1b, UniProt P26663, R1181K); experiment: HCV NS3 protease time-resolved fluorescence (TRF) assay, genotype 1b R155K; format: biochemical; settings: Ki 1b R155K
T1 construct: HCV genotype 1b (BK) NS3 modified enzyme
Experimental: (§1) The HCV NS3 protease inhibitory activity of the present compounds may be tested using assays known in the art. One such assay is HCV NS3 protease time-resolved fluorescence (TRF) assay as described below and in International Patent Application Publication No. WO2006/102087. Other examples of such assays are described in e.g., International Patent Application Publication No. WO2005/046712. The assay is performed in a final volume of 100 μl in assay buffer containing 50 mM HEPES, pH 7.5, 150 mM NaCl, 15% glycerol, 0.15% Triton X-100, 10 mM DTT, and 0.1% PEG 8000. NS3 protease is pre-incubated with various concentrations of inhibitors in DMSO for 30 minutes. The reaction is initiated by adding the TRF peptide substrate (final concentration 100 nM). NS3 mediated hydrolysis of the substrate is quenched after 1 hour at room temperature with 100 μl of 500 mM MES, pH 5.5. Product fluorescence is detected using either a VICTOR V2 or FUSION fluorophotometer (Perkin Elmer Life and Analytical Sciences) with excitation at 340 nm and emission at 615 nm with a 400 μs delay. Testing concentrations of different enzyme forms are selected to result in a signal to background ratio (S/B) of 10-30. IC50 values are derived using a standard four-parameter fit to the data. K; values are derived from IC50 values using the following formula, IC50=Ki(1+[S]/Km), Eqn (1), where [S] is the concentration of substrate peptide in the reaction and KM is the Michaelis constant. See Gallinari et al., 1999, Biochem. 38:5620-32; Gallinari et al., 1998, J. Virol. 72:6758-69; Taliani et al., 1996, Anal. Biochem. 240:60-67.
(§2) The HCV NS3 protease inhibitory activity was measured using the protease time-resolved fluorescence (TRF) assay as described below and in International Patent Application Publication No. WO 2006/102087. The assay was performed with HCV genotype 1b (BK) NS3 modified enzyme with a R155K mutation and genotype 3a (3A-1).
(§3) The assay was performed in a final volume of 50 μl in assay buffer containing 50 mM HEPES, pH 7.5, 150 mM NaCl, 15% glycerol, 0.15% TRITON X-100, 10 mM DTT, and 0.1% PEG 8000. NS3 and NS4A protease is pre-incubated with various concentrations of inhibitors in DMSO for 10 minutes. The reaction was initiated by adding the TRF peptide substrate (final concentration 25 nM) and NS3 mediated hydrolysis of the substrate proceeds for 6 hours at room temperature. Product fluorescence is detected using an Envision plate reader (Perkin Elmer) with excitation at 340 nm and emission at 615 nm with a 400 μs delay. Testing concentrations of the enzymes were selected to result in a signal to background ratio (S/B) of 5-20. IC50 values are derived using a standard four-parameter fit to the data.
(§4) NS3 and NS4A protease is pre-incubated with various concentrations of inhibitors in DMSO for 30 minutes. The reaction is initiated by adding the TRF peptide substrate (final concentration 100 nM). NS3 mediated hydrolysis of the substrate is quenched after 1 hour at room temperature with 100 μl of 500 mM MES, pH 5.5. Product fluorescence is detected using either a VICTOR V2 or FUSION fluorophotometer (Perkin Elmer Life and Analytical Sciences) with excitation at 340 nm and emission at 615 nm with a 400 μs delay. Testing concentrations of the enzymes are selected to result in a signal to background ratio (S/B) of 8-30. IC50 values are derived using a standard four-parameter fit to the data. Ki values are derived from IC50 values using the following formula, IC50=Ki(1+[S][…]), Eqn (1), where [S] is the concentration of substrate peptide in the reaction and KM is the Michaelis constant. See Gallinari et al., 1999, Biochem. 38:5620-32; Gallinari et al., 1998, J. Virol. 72:6758-69; and Taliani et al., 1996, Anal. Biochem. 240:60-67. ND means not determined.

[2] = target: HCV NS3 protease genotype 3a (3A-1) (Hepatitis C virus genotype 3a, UniProt Q81258); experiment: HCV NS3 protease time-resolved fluorescence (TRF) assay, genotype 3a; format: biochemical; settings: Ki 3a
Experimental: as §1, §2, §3, §4

[3] = genotype 1b (BK) NS3 R155K, single value

Row | Compound | pKi ([1]; first of two values printed in the cell (not explained)) | pKi ([1]; second of two values printed in the cell (not explained)) | pKi [2] | pKi [1, 3]
1 | C=C[C@@H]1C[C@]1(NC(=O)[C@@H]1C[C@@H]2CN1C(=O)[C@H](C1CCCCC1)NC(=O)O[C@@H]1C[C@H]1CCCCCc1c(nc3ccccc3c1OC1CC3COCC(C1)N3C(=O)OC(C)(C)C)O2)C(=O)NS(=O)(=O)C1(C)CC1 (stereo partly drawn) [Example 287, tert-butyl 7-{[(1aR,5S,8S,10R,22aR)-5-cyclohexyl-8-{[(1R,2S)-2-ethenyl-1-{[(1-methylcyclopropyl)sulfonyl]carbamoyl}cyclopropyl]carbamoyl}-3,6-dioxo-1,1a,3,4,5,6,9,10,18,19,20,21,22,22a-tetradecahydro-8H-7,10-methanocyclopropa[18,19][1,10,3,6]dioxadiazacyclononadecino[11,12-b]quinolin-17-yl]oxy}-3-oxa-9-azabicyclo[3.3.1]nonane-9-carboxylate] | 10.04 | 8.59 | 7.24 | 
2 | CC1(S(=O)(=O)NC(=O)[C@@]23C[C@H]2/C=C\CCCCC[C@@H]2NC(=O)O[C@@H]4C[C@H]4CCC/C=C/c4c(nc5ccccc5c4OCCCN4CCCCC4)O[C@@H]4C[C@@H](C(=O)N3)N(C4)C2=O)CC1 [Example 302, (1aR,5S,11Z,12aS,13aR,16S,19R,27E,31aR)—N-[(1-methylcyclopropyl)sulfonyl]-3,15,33-trioxo-26-[3-(piperidin-1-yl)propoxy]-1,1a,3,4,5,6,7,8,9,10,12a,13,15,16,18,19,29,30,31,31a-icosahydro-5,17:16,19-dimethanodicyclopropa[12,13:28,29][1,20,3,14,17]dioxatriazacyclononacosino[21,22-b]quinoline-13a(14H)-carboxamide] |  |  | 8.70 | 9.80
3 | C=C[C@@H]1C[C@]1(NC(=O)[C@@H]1C[C@@H]2CN1C(=O)[C@H](C(C)(C)C)NC(=O)O[C@@H]1C[C@H]1CCCCCc1c(nc3ccccc3c1OCCCN(C)Cc1ncc[nH]1)O2)C(=O)NS(=O)(=O)C1(C)CC1 [Example 200, (1aR,5S,8S,10R,22aR)-5-tert-butyl-N-[(1R,2S)-2-ethenyl-1-{[(1-methylcyclopropyl)sulfonyl]carbamoyl}cylcopropyl]-17-{3-[(1H-imidazol-2-ylmethyl)(methyl)amino]propoxy}-3,6-dioxo-1,1a,3,4,5,6,9,10,18, 19,20,21,22,22a-tetradecahydro-8H-7,10-methanocyclopropa[18,19][1,10,3,6] dioxadiazacyclononadecino[11,12-b] quinoline-8-carboxamide] |  |  | 9.02 | 10.13
4 | C=C[C@@H]1C[C@]1(NC(=O)[C@@H]1C[C@@H]2CN1C(=O)[C@H](C(C)(C)C)NC(=O)O[C@@H]1C[C@H]1CCCCCc1c(nc3c(OC)cccc3c1OCCN1CCOCC1)O2)C(=O)NS(=O)(=O)C1(C)CC1 [Example 127, (1aR,5S,8S,10R,22aR)-5-tert-butyl-N-[(1R,2S)-2-ethenyl-1-{[(1-methylcyclopropyl)sulfonyl]carbamoyl}cyclopropyl]-13-methoxy-17-[2-(morpholin-4-yl)ethoxy]-3,6-dioxo-1,1a,3,4,5,6.9, 10,18,19,20,21,22,22a-tetradecahydro-8H-7,10-methanocyclopropa [18,19][1,10,3,6]dioxadiaza cyclononadecino[11,12-b]quinoline-8-carboxamide] |  |  | 8.68 | 9.96
5 | C=C[C@@H]1C[C@]1(NC(=O)[C@@H]1C[C@@H]2CN1C(=O)[C@H](C1CCCC1)NC(=O)O[C@@H]1CCC[C@H]1CC/C=C/Cc1c(nc3ccccc3c1OC(C)=O)O2)C(=O)NS(=O)(=O)C1CC1 [Example 39, (3aR,7S,10S,12R,21E,24aS)-7-cyclopentyl-10-({(1R,2S)-1-[(cyclopropylsulfonyl)carbamoyl]-2-ethenylcyclopropyl}carbamoyl)-5,8-dioxo-1,2,3,3a,5,6,7,8,11,12,20,23,24,24a-tetradecahydro-10H-9,12-methanocyclopenta[18,19][1,10,3,6]dioxadiazacyclononadecino[11,12-b]quinolin-19-yl acetate] |  |  | 8.46 | 9.89
